From US9133521B2, “Composition for diagnosing Alzheimer's disease using methylation status of HMOX1 gene and method for diagnosing Alzheimer's disease using the same” (Ewha University—Industry Collaboration Foundation, priority 2012, dated 2015)

System: HMOX1 expression in H4 cell line
Assay: HMOX1 gene expression by qRT-PCR in H4 cell line treated with 5-aza-2′-deoxycytidine
Format: cell-based, human
Conditions: normal H4 cell line, 10 μM for 3 days, normalized to GAPDH
Experimental: Human neuroglioblastoma cell line, H4 was cultured in a Dulbecco's modified Eagle medium containing 10% fetal bovine serum, 100 U/mL penicillin, 100 μg/mL streptomycin and 2 mM L-glutamine, and APP695-Swedish mutant (K595N/M596L)-expressing Alzheimer's disease model cell line, H4-sw was cultured in the H4 culture medium supplemented with 500 μg/mL geneticine.
Total RNAs were extracted from the cell line and the brain tissues using an RNeasy mini kit (Qiagen). The extraction method was performed according to the manufacturer's manual. The extracted total RNAs were quantified using a spectrophotometer, and RNA degradation was examined by electrophoresis in a 1% agarose gel.
For cDNA synthesis, Superscript II reverse transcriptase (Invitrogen) was used. 1 μg of total RNA and 50 ng of oligo dT were denatured at 70° C. for 10 minutes, and then a reaction mixture of 4 μA of 5×RT buffer, 2 μA of […], 4 μA of 2.5 mM dNTP mixture, 200 units of Superscript II reverse transcriptase, 10 units of RNase inhibitor was added thereto. 20 μA of the reaction mixture was reacted at 25° C. for 10 minutes, at 42° C. for 50 minutes, and at 95° C. for 5 minutes for cDNA synthesis. The product was diluted at 1:4, and 2 μA thereof was used as a template of qRT-PCR. […]

Which HMOX1 expression does the source give for Nc1ncn([C@H]2C[C@H](O)[C@@H](CO)O2)c(=O)n1 [5-aza-2′-deoxycytidine] here?
The HMOX1 expression was “increased”.
